The test system of this assay is Sarcoma-180. In words: Pharmacological Test I: tumor weight in ICR mice subcutaneously transplanted with Sarcoma-180, oral administration. Particulars: Mus musculus, Sarcoma-180, 240 h, once a day for 7 consecutive days, tumor weight on 10th day after transplantation, read-out: ED50 (50% tumor inhibition dose, T/C = 0.5). The class given is in vivo. The method, then: Sarcoma-180 subcultured in an ascites of ICR mice was diluted with a physiological saline solution and subcutaneously transplanted into the backs of ICR mice in an amount of 2×10^7 cells each. Twenty-four hours after the transplantation, a test compound suspended in a 5% solution of gum arabic was orally administered to each of mice once a day for 7 consecutive days.
The solid tumor was isolated from under the dorsal skin of mice on the 10th day after the transplantation to measure the weight of the tumor. There was determined the ratio (T/C) of the weight of tumor (T) cut out from the group of mice treated with the test compound to the weight of tumor (C) from the group of mice not treated therewith. The 50% tumor inhibition dose (ED50 value) in which T/C is 0.5 was determined from the dose-response curve of dosage and the ratio (T/C).

As to `CCC(=O)OC[C@H]1O[C@@H](n2cc(F)c(=O)[nH]c2=O)C[C@@H]1OCc1cccs1`, the ED50 amounted to 2 mg/kg.

The record behind these values is patent US5047521A, “5-fluorouracil derivatives” (Otsuka Pharmaceutical Co., Ltd., priority 1986, dated 1991).
